These results are taken from ChEMBL document CHEMBL1153852, “Steroidal lactones as inhibitors of 17beta-hydroxysteroid dehydrogenase type 5: chemical synthesis, enzyme inhibitory activity, and assessment of estrogenic and androgenic activities” (Eur J Med Chem, 2009).

Active and inactive are the calls of the source. No cut-off for these calls is given here.

The target of assay [1] is T1, Progesterone receptor (Rattus norvegicus) (UniProt Q63449).
T1 sequence (whole entry): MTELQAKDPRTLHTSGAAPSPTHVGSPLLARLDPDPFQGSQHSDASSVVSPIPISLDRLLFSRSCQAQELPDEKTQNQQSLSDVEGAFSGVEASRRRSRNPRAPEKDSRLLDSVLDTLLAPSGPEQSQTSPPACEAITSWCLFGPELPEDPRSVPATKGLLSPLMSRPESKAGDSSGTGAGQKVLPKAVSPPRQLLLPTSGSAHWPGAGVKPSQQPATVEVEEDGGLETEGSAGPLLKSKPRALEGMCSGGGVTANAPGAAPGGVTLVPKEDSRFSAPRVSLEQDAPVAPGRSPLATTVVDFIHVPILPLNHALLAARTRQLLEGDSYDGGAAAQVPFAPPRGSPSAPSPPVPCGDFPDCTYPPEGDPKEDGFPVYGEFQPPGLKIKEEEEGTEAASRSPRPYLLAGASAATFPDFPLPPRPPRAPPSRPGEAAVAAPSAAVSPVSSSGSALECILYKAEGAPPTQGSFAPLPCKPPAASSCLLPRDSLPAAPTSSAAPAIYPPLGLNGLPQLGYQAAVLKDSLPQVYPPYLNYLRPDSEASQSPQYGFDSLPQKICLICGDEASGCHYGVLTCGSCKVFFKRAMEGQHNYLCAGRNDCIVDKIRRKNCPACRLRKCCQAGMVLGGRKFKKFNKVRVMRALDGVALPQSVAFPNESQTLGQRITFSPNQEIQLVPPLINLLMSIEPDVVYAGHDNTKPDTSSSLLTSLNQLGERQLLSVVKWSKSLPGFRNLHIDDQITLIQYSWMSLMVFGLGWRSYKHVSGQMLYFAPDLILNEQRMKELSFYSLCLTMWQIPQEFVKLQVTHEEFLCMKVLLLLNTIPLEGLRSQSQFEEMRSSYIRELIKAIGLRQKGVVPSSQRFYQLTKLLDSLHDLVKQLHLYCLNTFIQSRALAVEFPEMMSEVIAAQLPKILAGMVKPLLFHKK
The assay is described as follows: Binding affinity to rat uterus progesterone receptor at 0.1 uM.

Assay [2] deals with T2, Androgen receptor (Rattus norvegicus) (UniProt P15207).
T2 sequence (whole entry): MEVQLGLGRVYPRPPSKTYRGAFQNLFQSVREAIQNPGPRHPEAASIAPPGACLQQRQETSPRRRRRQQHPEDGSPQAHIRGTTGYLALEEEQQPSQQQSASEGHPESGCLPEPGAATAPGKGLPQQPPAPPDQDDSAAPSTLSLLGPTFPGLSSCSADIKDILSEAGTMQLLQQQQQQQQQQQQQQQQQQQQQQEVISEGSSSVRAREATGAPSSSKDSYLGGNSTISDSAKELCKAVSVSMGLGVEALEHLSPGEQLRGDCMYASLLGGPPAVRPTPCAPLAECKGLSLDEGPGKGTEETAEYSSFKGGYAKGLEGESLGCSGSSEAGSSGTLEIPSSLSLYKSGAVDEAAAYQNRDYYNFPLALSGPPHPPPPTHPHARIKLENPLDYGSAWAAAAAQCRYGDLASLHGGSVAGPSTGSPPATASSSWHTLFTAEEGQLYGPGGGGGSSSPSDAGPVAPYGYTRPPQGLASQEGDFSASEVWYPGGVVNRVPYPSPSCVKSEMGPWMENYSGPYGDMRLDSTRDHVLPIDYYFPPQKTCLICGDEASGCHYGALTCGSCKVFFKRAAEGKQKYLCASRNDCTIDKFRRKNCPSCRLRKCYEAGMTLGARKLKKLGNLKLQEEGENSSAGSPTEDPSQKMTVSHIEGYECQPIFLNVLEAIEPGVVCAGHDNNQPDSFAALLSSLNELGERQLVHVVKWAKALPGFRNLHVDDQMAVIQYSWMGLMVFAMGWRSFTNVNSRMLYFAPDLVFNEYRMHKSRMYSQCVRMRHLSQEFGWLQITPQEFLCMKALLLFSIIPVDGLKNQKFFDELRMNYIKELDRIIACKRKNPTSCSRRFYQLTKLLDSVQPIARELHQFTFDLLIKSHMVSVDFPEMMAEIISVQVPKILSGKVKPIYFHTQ
The assay is described as follows: Binding affinity to rat ventral prostate androgen receptor at 0.1 uM. It counts as tissue-based. Particulars: Prostate gland.

In assay [3] the target is T3, 17-beta-hydroxysteroid dehydrogenase type 2 (Homo sapiens) (UniProt P37059).
T3 sequence (whole entry): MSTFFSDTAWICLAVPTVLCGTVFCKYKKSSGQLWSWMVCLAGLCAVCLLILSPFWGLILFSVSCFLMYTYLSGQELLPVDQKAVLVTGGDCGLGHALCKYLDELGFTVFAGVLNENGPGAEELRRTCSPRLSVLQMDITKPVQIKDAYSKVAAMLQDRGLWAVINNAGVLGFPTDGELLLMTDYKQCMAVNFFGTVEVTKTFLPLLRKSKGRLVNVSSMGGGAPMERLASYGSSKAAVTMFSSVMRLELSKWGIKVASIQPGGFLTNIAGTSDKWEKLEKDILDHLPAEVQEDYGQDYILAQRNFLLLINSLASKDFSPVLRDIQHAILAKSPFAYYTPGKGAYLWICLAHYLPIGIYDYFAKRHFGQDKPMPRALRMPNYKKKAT
The assay is described as follows: Inhibition of human 17beta-HSD2 expressed in HEK293 cells assessed as enzyme-mediated transformation of [14C]-testosterone in to [14C]-4-androstene-3,17-dione at 0.1 uM. In kind it is cell-based.

In assay [4] the target is T2, Androgen receptor (Rattus norvegicus). The assay is described as follows: Binding affinity to rat ventral prostate androgen receptor at 1 uM. In kind it is tissue-based. Particulars: Prostate gland.
Assay [5] has as its target T4, 17-beta-hydroxysteroid dehydrogenase type 3 (Homo sapiens) (UniProt P37058).
T4 sequence (whole entry): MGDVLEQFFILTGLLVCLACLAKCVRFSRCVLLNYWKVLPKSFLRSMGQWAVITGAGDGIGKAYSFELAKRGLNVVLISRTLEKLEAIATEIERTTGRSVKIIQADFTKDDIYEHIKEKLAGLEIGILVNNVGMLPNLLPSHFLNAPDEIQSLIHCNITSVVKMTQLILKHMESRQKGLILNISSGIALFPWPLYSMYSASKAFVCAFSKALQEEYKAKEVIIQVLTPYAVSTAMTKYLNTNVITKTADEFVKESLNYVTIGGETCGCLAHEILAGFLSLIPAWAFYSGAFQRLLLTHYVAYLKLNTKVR
The assay is described as follows: Inhibition of human 17beta-HSD3 expressed in HEK293 cells assessed as enzyme-mediated transformation of [14C]-4-androstene-3,17-dione in to [14C]-testosterone at 1 uM. It counts as cell-based.

In assay [6] the target is T4, 17-beta-hydroxysteroid dehydrogenase type 3 (Homo sapiens). Put plainly: Inhibition of human 17beta-HSD3 expressed in HEK293 cells assessed as enzyme-mediated transformation of [14C]-4-androstene-3,17-dione in to [14C]-testosterone at 0.1 uM. It counts as cell-based.

`CC1(C)CC[C@@]2(CC[C@H]3[C@@H]4CCc5cc(O)ccc5[C@H]4CC[C@@]32C)OC1=O`: the values for the Activity in assay [1] and in assay [2] were 11% and 0%, respectively. Besides, the outcome in assay [3] was inactive.

In general, inhibition refers to how much of the control response was suppressed. Regarding `CC1(C)CC[C@@]2(CC[C@H]3[C@@H]4CCc5ccccc5[C@H]4CC[C@@]32C)OC1=O`, the Activity in assay [4] was found to be 0%. Further, the inhibition in assay [5] was found to be 64%; in assay [6], 25%.
